Where two headings read alike, the source gives them in different places.
Legend:
[1] = target: C. elegans (N2) complex I (NADH:ubiquinone oxidoreductase) (Caenorhabditis elegans, UniProt P24887+Q93873+Q94360); assay: biochemical; format: biochemical
Procedure, shortened: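 Compounds were tested against freeze-thawed isolated mitochondria (0.2 mg/mL protein). NADH:decylubiquinone activity was monitored via DCIP absorbance at 600 nm, and the initial linear slope was normalised to solvent controls.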

[2] = tested on: L1 wild-type C. elegans; assay: microbe, parasite or virus in culture; details: Caenorhabditis elegans, read-out: C. elegans KCN Survival Assay LC50, estimated from fitted dose-response curves; mean of at least two biological replicates
[3] = tested on: L1 wild-type C. elegans

C. elegans (N2) complex I (NADH:ubiquinone oxidoreductase), sequence (Q94360 17-199): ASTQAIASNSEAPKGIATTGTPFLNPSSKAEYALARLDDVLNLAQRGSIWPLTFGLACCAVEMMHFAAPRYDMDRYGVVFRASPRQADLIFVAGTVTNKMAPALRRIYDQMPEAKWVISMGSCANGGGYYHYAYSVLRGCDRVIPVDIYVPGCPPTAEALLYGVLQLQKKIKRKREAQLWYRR
C. elegans (N2) complex I (NADH:ubiquinone oxidoreductase), sequence (P24887 whole entry): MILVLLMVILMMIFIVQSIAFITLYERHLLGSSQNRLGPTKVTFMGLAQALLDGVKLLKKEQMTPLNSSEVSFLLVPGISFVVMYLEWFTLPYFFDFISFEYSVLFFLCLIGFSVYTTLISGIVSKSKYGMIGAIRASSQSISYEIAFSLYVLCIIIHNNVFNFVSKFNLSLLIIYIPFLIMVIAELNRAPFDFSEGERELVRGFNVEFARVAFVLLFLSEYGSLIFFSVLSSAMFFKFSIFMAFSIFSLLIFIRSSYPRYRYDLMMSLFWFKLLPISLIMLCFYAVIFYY
C. elegans (N2) complex I (NADH:ubiquinone oxidoreductase), sequence (Q93873 31-482): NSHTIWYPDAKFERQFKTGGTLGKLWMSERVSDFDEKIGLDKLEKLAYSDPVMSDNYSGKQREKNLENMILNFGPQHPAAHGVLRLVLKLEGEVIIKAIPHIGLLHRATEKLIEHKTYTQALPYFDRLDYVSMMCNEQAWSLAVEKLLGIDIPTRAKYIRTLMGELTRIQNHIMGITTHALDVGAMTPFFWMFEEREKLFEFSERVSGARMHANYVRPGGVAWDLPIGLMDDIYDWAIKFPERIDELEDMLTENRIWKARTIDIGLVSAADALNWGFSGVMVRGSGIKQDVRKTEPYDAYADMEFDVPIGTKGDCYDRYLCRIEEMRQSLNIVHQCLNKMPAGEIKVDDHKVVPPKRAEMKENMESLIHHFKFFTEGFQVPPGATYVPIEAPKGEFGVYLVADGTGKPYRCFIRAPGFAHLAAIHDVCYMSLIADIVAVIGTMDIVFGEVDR

SMILES: Cc1ccccc1OCCCCn1cnc2ccccc21 [Compound 7732524]
- remaining activity at 0.0001 µM ([1]; C. elegans mitochondria, 0.0001 µM, Mean, read-out: in vitro complex I activity relative to solvent control): 109%
- remaining activity at 0.0005 µM ([1]; C. elegans mitochondria, 0.0005 µM, Mean, read-out: in vitro complex I activity relative to solvent control): 117%
- remaining activity at 0.001 µM ([1]; C. elegans mitochondria, 0.001 µM, Mean, read-out: in vitro complex I activity relative to solvent control): 115%
- remaining activity at 0.0025 µM ([1]; C. elegans mitochondria, 0.0025 µM, Mean, read-out: in vitro complex I activity relative to solvent control): 106%
- remaining activity at 0.005 µM ([1]; C. elegans mitochondria, 0.005 µM, Mean, read-out: in vitro complex I activity relative to solvent control): 87.1%
- remaining activity at 0.013 µM ([1]; C. elegans mitochondria, 0.013 µM, Mean, read-out: in vitro complex I activity relative to solvent control): 95.4%
- remaining activity at 0.025 µM ([1]; C. elegans mitochondria, 0.025 µM, Mean, read-out: in vitro complex I activity relative to solvent control): 84.9%
- remaining activity at 0.063 µM ([1]; C. elegans mitochondria, 0.063 µM, Mean, read-out: in vitro complex I activity relative to solvent control): 60.5%
- remaining activity at 0.063 µM ([1]; C. elegans mitochondria, 0.063 µM, single replicate, read-out: in vitro complex I activity relative to solvent control): 65%
- remaining activity at 0.125 µM ([1]; C. elegans mitochondria, 0.125 µM, Mean, read-out: in vitro complex I activity relative to solvent control): 45.4%
- remaining activity at 0.125 µM ([1]; C. elegans mitochondria, 0.125 µM, single replicate, read-out: in vitro complex I activity relative to solvent control): 44.7%
- remaining activity at 0.313 µM ([1]; C. elegans mitochondria, 0.313 µM, Mean, read-out: in vitro complex I activity relative to solvent control): 25.3%
- remaining activity at 0.313 µM ([1]; C. elegans mitochondria, 0.313 µM, single replicate, read-out: in vitro complex I activity relative to solvent control): 21%
- remaining activity at 0.625 µM ([1]; C. elegans mitochondria, 0.625 µM, Mean, read-out: in vitro complex I activity relative to solvent control): 10.1%
- remaining activity at 0.625 µM ([1]; C. elegans mitochondria, 0.625 µM, single replicate, read-out: in vitro complex I activity relative to solvent control): 12.2%
- remaining activity at 1.5 µM ([1]; C. elegans mitochondria, 1.5 µM, Mean, read-out: in vitro complex I activity relative to solvent control): 2.78%
- remaining activity at 3 µM ([1]; C. elegans mitochondria, 3 µM, Mean, read-out: in vitro complex I activity relative to solvent control): 0.645%
- remaining activity at 15 µM ([1]; C. elegans mitochondria, 15 µM, Mean, read-out: in vitro complex I activity relative to solvent control): 0.827%
- remaining activity at 37.5 µM ([1]; C. elegans mitochondria, 37.5 µM, Mean, read-out: in vitro complex I activity relative to solvent control): 0.871%
- remaining activity at 75 µM ([1]; C. elegans mitochondria, 75 µM, Mean, read-out: in vitro complex I activity relative to solvent control): 6.44%
- activity at 0.0001 µM ([1]; Dose 0.0001 µM, read-out: C. elegans mitochondrial complex I activity): 130%
- activity at 0.0005 µM ([1]; Dose 0.0005 µM, read-out: C. elegans mitochondrial complex I activity): 145%
- activity at 0.001 µM ([1]; Dose 0.001 µM, read-out: C. elegans mitochondrial complex I activity): 142%
- activity at 0.0025 µM ([1]; Dose 0.0025 µM, read-out: C. elegans mitochondrial complex I activity): 138%
- activity at 0.005 µM ([1]; Dose 0.005 µM, read-out: C. elegans mitochondrial complex I activity): 126%
- activity at 0.013 µM ([1]; Dose 0.013 µM, read-out: C. elegans mitochondrial complex I activity): 120%
- activity at 0.025 µM ([1]; Dose 0.025 µM, read-out: C. elegans mitochondrial complex I activity): 94.3%
- activity at 0.063 µM ([1]; Dose 0.063 µM, read-out: C. elegans mitochondrial complex I activity): 78.2%
- activity at 0.125 µM ([1]; Dose 0.125 µM, read-out: C. elegans mitochondrial complex I activity): 53.5%
- activity at 0.313 µM ([1]; Dose 0.313 µM, read-out: C. elegans mitochondrial complex I activity): 30.1%
- activity at 0.625 µM ([1]; Dose 0.625 µM, read-out: C. elegans mitochondrial complex I activity): 10.6%
- activity at 1.5 µM ([1]; Dose 1.5 µM, read-out: C. elegans mitochondrial complex I activity): 3.27%
- activity at 3 µM ([1]; Dose 3 µM, read-out: C. elegans mitochondrial complex I activity): 1.97%
- activity at 15 µM ([1]; Dose 15 µM, read-out: C. elegans mitochondrial complex I activity): 1.08%
- activity at 37.5 µM ([1]; Dose 37.5 µM, read-out: C. elegans mitochondrial complex I activity): 3.31%
- activity at 75 µM ([1]; Dose 75 µM, read-out: C. elegans mitochondrial complex I activity): 6.44%
- remaining activity at 0.0001 µM ([1]; dose 0.0001 µM, wild-type C. elegans, mean of replicates, read-out: in vitro complex I activity relative to solvent control, Mean): 109%
- remaining activity at 0.0005 µM ([1]; dose 0.0005 µM, wild-type C. elegans, mean of replicates, read-out: in vitro complex I activity relative to solvent control, Mean): 117%
- remaining activity at 0.001 µM ([1]; dose 0.001 µM, wild-type C. elegans, mean of replicates, read-out: in vitro complex I activity relative to solvent control, Mean): 115%
- remaining activity at 0.0025 µM ([1]; dose 0.0025 µM, wild-type C. elegans, mean of replicates, read-out: in vitro complex I activity relative to solvent control, Mean): 106%
- remaining activity at 0.005 µM ([1]; dose 0.005 µM, wild-type C. elegans, mean of replicates, read-out: in vitro complex I activity relative to solvent control, Mean): 87.1%
- remaining activity at 0.013 µM ([1]; dose 0.013 µM, wild-type C. elegans, mean of replicates, read-out: in vitro complex I activity relative to solvent control, Mean): 95.4%
- remaining activity at 0.025 µM ([1]; dose 0.025 µM, wild-type C. elegans, mean of replicates, read-out: in vitro complex I activity relative to solvent control, Mean): 84.9%
- remaining activity at 0.063 µM ([1]; dose 0.063 µM, wild-type C. elegans, mean of replicates, read-out: in vitro complex I activity relative to solvent control, Mean): 60.5%
- remaining activity at 0.063 µM ([1]; dose 0.063 µM, wild-type C. elegans, single replicate, read-out: in vitro complex I activity relative to solvent control, individual replicate): 65%
- remaining activity at 0.125 µM ([1]; dose 0.125 µM, wild-type C. elegans, mean of replicates, read-out: in vitro complex I activity relative to solvent control, Mean): 45.4%
- remaining activity at 0.125 µM ([1]; dose 0.125 µM, wild-type C. elegans, single replicate, read-out: in vitro complex I activity relative to solvent control, individual replicate): 44.7%
- remaining activity at 0.313 µM ([1]; dose 0.313 µM, wild-type C. elegans, mean of replicates, read-out: in vitro complex I activity relative to solvent control, Mean): 25.3%
- remaining activity at 0.313 µM ([1]; dose 0.313 µM, wild-type C. elegans, single replicate, read-out: in vitro complex I activity relative to solvent control, individual replicate): 21%
- remaining activity at 0.625 µM ([1]; dose 0.625 µM, wild-type C. elegans, mean of replicates, read-out: in vitro complex I activity relative to solvent control, Mean): 10.1%
- remaining activity at 0.625 µM ([1]; dose 0.625 µM, wild-type C. elegans, single replicate, read-out: in vitro complex I activity relative to solvent control, individual replicate): 12.2%
- remaining activity at 1.5 µM ([1]; dose 1.5 µM, wild-type C. elegans, mean of replicates, read-out: in vitro complex I activity relative to solvent control, Mean): 2.78%
- remaining activity at 3 µM ([1]; dose 3 µM, wild-type C. elegans, mean of replicates, read-out: in vitro complex I activity relative to solvent control, Mean): 0.645%
- remaining activity at 15 µM ([1]; dose 15 µM, wild-type C. elegans, mean of replicates, read-out: in vitro complex I activity relative to solvent control, Mean): 0.827%
- remaining activity at 37.5 µM ([1]; dose 37.5 µM, wild-type C. elegans, mean of replicates, read-out: in vitro complex I activity relative to solvent control, Mean): 0.871%
- remaining activity at 75 µM ([1]; dose 75 µM, wild-type C. elegans, mean of replicates, read-out: in vitro complex I activity relative to solvent control, Mean): 6.44%
- IC50 ([1]; in vitro complex I dose response on C. elegans mitochondria, average of at least two biological replicates, fit in R (DRC), read-out: IC50 C. elegans complex I): 140 nM
- Log IC50 C. elegans complex I ([1]; log10 of IC50 in µM, C. elegans mitochondria): -0.85 µM
- IC50 ([1]; wild-type (N2) mitochondria, read-out: C. elegans Complex I IC50): 140 nM
- IC50 ([1]; wild-type (N2) mitochondria, read-out: C. elegans complex I IC50): 104 nM
- IC50 ([1]; wild-type C. elegans mitochondria, estimated from fitted dose-response curves, read-out: C. elegans Complex I IC50): 140 nM
- LC50 [2]: 6.37 µM
- Screen "Hit" ([3]; 50 μM, […], KCN survival assay, hit = relative motility below 0.25): Y (hits were identified as compounds that reduced relative motility below 0.25 (75% reduction))
- C. elegans KCN Survival ([3]; Dose 0.2 µM, mean of at least three biological replicates): 1.002
- C. elegans KCN Survival ([3]; Dose 0.39 µM): 0.963
- C. elegans KCN Survival ([3]; Dose 1.56 µM): 0.887
- C. elegans KCN Survival ([3]; Dose 3.13 µM): 0.828
- C. elegans KCN Survival ([3]; Dose 6.25 µM): 0.509
- C. elegans KCN Survival ([3]; Dose 12.5 µM): 0.007
- C. elegans KCN Survival ([3]; Dose 25 µM): 0.000
- C. elegans KCN Survival ([3]; Dose 50 µM): 0.000
- C. elegans KCN Survival ([3]; Dose 100 µM): 0.000

— article PMC11079024, “Identification of a family of species-selective complex I inhibitors as potential anthelmintics” (Nature Communications, 2024)
